US11034718B2, “C-3 novel triterpenone with C-17 reverse amide derivatives as HIV inhibitors” (HETERO LABS LIMITED, priority 2015, dated 2021)
Where two headings read alike, the source gives them in different places.

Tests used:
Type in all cases: cell-based
HIV-1 pNL4-3 WT = assay: Antiviral activity against pNL4-3/WT strain in MT4 cells (p24 estimation); details: Human immunodeficiency virus 1, MT4, 96 h, read-out: pNL4-3 WT IC50
Method in brief: (§1)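 MT4 cells infected with HIV-1 pNL4-3 WT or V7A (defined TCID50, 1.5 h, 37° C), plated at 3×10^4 cells/well with test compound, final DMSO ≤1%. After 4 days' culture, p24 in supernatant aliquots measured by kit.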

HIV-1 pNL4-3 V7A = assay: Antiviral activity against pNL4-3/V7A strain in MT4 cells (p24 estimation); details: Human immunodeficiency virus 1, MT4, 96 h, read-out: pNL4-3 V7A IC50
Method in brief: as §1

HIV-1 strain 92HT599 = assay: Antiviral activity against HIV-1 strain 92HT599 in MT2 cells (p24 estimation); details: HIV-1 92HT599, ~96 hours
Method in brief: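 Percent inhibition versus vehicle controls came from p24 quantified in supernatant aliquots. These were taken after ~96 h incubation of compound (DMSO ≤1%) with MT2 cells infected at 10 TCID50/30,000 cells.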

[1] = Human immunodeficiency virus 1, 0% serum binding assay, read-out: IC50 0% serum
[2] = Human immunodeficiency virus 1, 40% serum binding assay, read-out: IC50 40% serum

In the case of `CC(C)C1=C2[C@H]3CC[C@@H]4[C@@]5(C)CC[C@H](OC(=O)[C@H]6C[C@@H](C(=O)O)C6(C)C)C(C)(C)[C@@H]5CC[C@@]4(C)[C@]3(C)CC[C@@]2(NC(=O)C(C)(C)NC(=O)Cc2ccc(Cl)cc2)CC1=O` [Example 53, (1R,3S)-3-((((3aR,5aR,5bR,7aR,9S,11aR,11bR,13aS)-3a-(2-(2-(4-chlorophenyl)acetamido)-2-methylpropanamido)-1-isopropyl-5a,5b,8,8,11a-pentamethyl-2-oxo-3,3a,4,5,5a,5b,6,7,7a,8,9,10,11,11a,11b,12,13,13a-octadecahydro-2H-cyclopenta[a]chrysen-9-yl)oxy)carbonyl)-2,2-dimethylcyclobutane-1-carboxylic acid], the IC50 (HIV-1 pNL4-3 WT) is reported as less than 5 nM, the IC50 (HIV-1 pNL4-3 V7A) is reported as less than 10 nM and the IC50 (HIV-1 strain 92HT599; [1]) is reported as less than 3 nM. The IC50 (HIV-1 strain 92HT599; [2]) was less than 50 nM.

For `CC(C)C1=C2[C@H]3CC[C@@H]4[C@@]5(C)CC[C@H](OC(=O)[C@H]6C[C@@H](C(=O)O)C6(C)C)C(C)(C)[C@@H]5CC[C@@]4(C)[C@]3(C)CC[C@@]2(NC(=O)C(C)(C)NC(=O)c2cnn3cccnc23)CC1=O` [Example 54, (1R,3S)-3-((((3aR,5aR,5bR,7aR,9S,11aR,11bR,13aS)-1-isopropyl-5a,5b,8,8,11a-pentamethyl-3a-(2-methyl-2-(pyrazolo[1,5-a]pyrimidine-3-carboxamido)propanamido)-2-oxo-3,3a,4,5,5a,5b,6,7,7a,8,9,10,11,11a,11b,12,13,13a-octadecahydro-2H-cyclopenta[a]chrysen-9-yl)oxy)carbonyl)-2,2-dimethylcyclobutane-1-carboxylic acid], the IC50 (HIV-1 pNL4-3 WT) was less than 5 nM, the IC50 (HIV-1 pNL4-3 V7A) was 10 to 50 nM and the IC50 (HIV-1 strain 92HT599; [1]) was less than 3 nM. The IC50 (HIV-1 strain 92HT599; [2]) was less than 50 nM.

`CC(C)C1=C2[C@H]3CC[C@@H]4[C@@]5(C)CC[C@H](OC(=O)[C@H]6C[C@@H](C(=O)O)C6(C)C)C(C)(C)[C@@H]5CC[C@@]4(C)[C@]3(C)CC[C@@]2(NC(=O)C(C)(C)NC(=O)c2csc(N)n2)CC1=O` [Example 55, (1R,3S)-3-((((3aR,5aR,5bR,7aR,9S,11aR,11bR,13aS)-3a-(2-(2-aminothiazole-4-carboxamido)-2-methylpropanamido)-1-isopropyl-5a,5b,8,8,11a-pentamethyl-2-oxo-3,3a,4,5,5a,5b,6,7,7a,8,9,10,11,11a,11b,12,13,13a-octadecahydro-2H-cyclopenta[a]chrysen-9-yl)oxy)carbonyl)-2,2-dimethylcyclobutane-1-carboxylic acid] showed an IC50 (HIV-1 pNL4-3 WT) greater than 10 nM, an IC50 (HIV-1 pNL4-3 V7A) greater than 50 nM and an IC50 (HIV-1 strain 92HT599; [1]) of 3.01 to 10 nM. It also gave an IC50 (HIV-1 strain 92HT599; [2]) of 50 to 200 nM.

Molecule `Cc1nnc(-c2ccc(C(=O)NC(C)(C)C(=O)N[C@@]34CC[C@]5(C)[C@H](CC[C@@H]6[C@@]7(C)CC[C@H](OC(=O)[C@H]8C[C@@H](C(=O)O)C8(C)C)C(C)(C)[C@@H]7CC[C@]65C)C3=C(C(C)C)C(=O)C4)cc2)o1` [Example 56, (1R,3S)-3-((((3aR,5aR,5bR,7aR,9S,11aR,11bR,13aS)-1-isopropyl-5a,5b,8,8,11a-pentamethyl-3a-(2-methyl-2-(4-(5-methyl-1,3,4-oxadiazol-2-yl)benzamido)propanamido)-2-oxo-3,3a,4,5,5a,5b,6,7,7a,8,9,10,11,11a,11b,12,13,13a-octadecahydro-2H-cyclopenta[a]chrysen-9-yl)oxy)carbonyl)-2,2-dimethylcyclobutane-1-carboxylic acid] has an IC50 (HIV-1 pNL4-3 WT) of 5.01 to 10 nM, an IC50 (HIV-1 pNL4-3 V7A) of 10 to 50 nM and an IC50 (HIV-1 strain 92HT599; [1]) of less than 3 nM. For the same molecule, the IC50 (HIV-1 strain 92HT599; [2]) was less than 50 nM.

Molecule `CC(C)C1=C2[C@H]3CC[C@@H]4[C@@]5(C)CC[C@H](OC(=O)[C@H]6C[C@@H](C(=O)O)C6(C)C)C(C)(C)[C@@H]5CC[C@@]4(C)[C@]3(C)CC[C@@]2(NC(=O)C(C)(C)NC(=O)c2ccc(N3CCS(=O)(=O)CC3)cc2)CC1=O` [Example 57, (1R,3S)-3-((((3aR,5aR,5bR,7aR,9S,11aR,11bR,13aS)-3a-(2-(4-(1,1-dioxidothiomorpholino)benzamido)-2-methylpropanamido)-1-isopropyl-5a,5b,8,8,11a-pentamethyl-2-oxo-3,3a,4,5,5a,5b,6,7,7a,8,9,10,11,11a,11b,12,13,13a-octadecahydro-2H-cyclopenta[a]chrysen-9-yl)oxy)carbonyl)-2,2-dimethylcyclobutane-1-carboxylic acid] has an IC50 (HIV-1 pNL4-3 WT) of 5.01 to 10 nM, an IC50 (HIV-1 pNL4-3 V7A) of 10 to 50 nM and an IC50 (HIV-1 strain 92HT599; [1]) of less than 3 nM. It also gave an IC50 (HIV-1 strain 92HT599; [2]) of less than 50 nM.

`CC(C)C1=C2[C@H]3CC[C@@H]4[C@@]5(C)CC[C@H](OC(=O)[C@H]6C[C@@H](C(=O)O)C6(C)C)C(C)(C)[C@@H]5CC[C@@]4(C)[C@]3(C)CC[C@@]2(NC(=O)C(C)(C)NC(=O)c2ccc(CN3CCS(=O)(=O)CC3)cc2)CC1=O` [Example 58, (1R,3S)-3-((((3aR,5aR,5bR,7aR,9S,11aR,11bR,13aS)-3a-(2-(4-((1,1-dioxidothiomorpholino)methyl)benzamido)-2-methylpropanamido)-1-isopropyl-5a,5b, 8,8,11a-pentamethyl-2-oxo-3,3a,4,5,5a,5b,6,7,7a,8,9,10,11,11a,11b,12,13,13a-octalecahydro-2H-cyclopenta[a]chrysen-9-yl)oxy)carbonyl)-2,2-dimethylcyclobutane-1-carboxylic acid] showed an IC50 (HIV-1 pNL4-3 WT) of 5.01 to 10 nM, an IC50 (HIV-1 pNL4-3 V7A) greater than 50 nM and an IC50 (HIV-1 strain 92HT599; [1]) of less than 3 nM. For the same molecule, the IC50 (HIV-1 strain 92HT599; [2]) was less than 50 nM.

With `Cc1ccc(C(=O)NC(C)(C)C(=O)N[C@@]23CC[C@]4(C)[C@H](CC[C@@H]5[C@@]6(C)CC[C@H](OC(=O)[C@H]7C[C@@H](C(=O)O)C7(C)C)C(C)(C)[C@@H]6CC[C@]54C)C2=C(C(C)C)C(=O)C3)cn1` [Example 61, (1R,3S)-3-((((3aR,5aR,5bR,7aR,9S,11aR,11bR,13aS)-1-isopropyl-5a,5b,8,8,11a-pentamethyl-3a-(2-methyl-2-(6-methylnicotinamido)propanamido)-2-oxo-3,3a,4,5,5a,5b,6,7,7a,8,9,10,11,11a,11b,12,13,13a-octadecahydro-2H-cyclopenta[a]chrysen-9-yl)oxy)carbonyl)-2,2-dimethylcyclobutane-1-carboxylic acid] the IC50 (HIV-1 pNL4-3 WT) was less than 5 nM, the IC50 (HIV-1 pNL4-3 V7A) was 10 to 50 nM and the IC50 (HIV-1 strain 92HT599; [1]) was less than 3 nM. The IC50 (HIV-1 strain 92HT599; [2]) was less than 50 nM.

`CC(C)C1=C2[C@H]3CC[C@@H]4[C@@]5(C)CC[C@H](OC(=O)[C@H]6C[C@@H](C(=O)O)C6(C)C)C(C)(C)[C@@H]5CC[C@@]4(C)[C@]3(C)CC[C@@]2(NC(=O)C(C)(C)NS(C)(=O)=O)CC1=O` [Example 63, sodium (1R,3S)-3-((((3aR,5aR,5bR,7aR,9S,11aR,11bR,13aS)-1-isopropyl-5a,5b,8,8,11a-pentamethyl-3a-(2-methyl-2-(methylsulfonamido)propanamido)-2-oxo-3,3a,4,5,5a,5b,6,7,7a,8,9,10,11,11a,11b,12,13,13a-octadecahydro-2H-cyclopenta[a]chrysen-9-yl)oxy)carbonyl)-2,2-dimethylcyclobutane-1-carboxylate] gave an IC50 (HIV-1 pNL4-3 WT) greater than 10 nM, an IC50 (HIV-1 pNL4-3 V7A) greater than 50 nM and an IC50 (HIV-1 strain 92HT599; [1]) of less than 3 nM. The IC50 (HIV-1 strain 92HT599; [2]) was less than 50 nM.

With `CCOC(=O)NC(C)(C)C(=O)N[C@@]12CC[C@]3(C)[C@H](CC[C@@H]4[C@@]5(C)CC[C@H](OC(=O)[C@H]6C[C@@H](C(=O)O)C6(C)C)C(C)(C)[C@@H]5CC[C@]43C)C1=C(C(C)C)C(=O)C2` [Example 64] the IC50 (HIV-1 pNL4-3 WT) was 5.01 to 10 nM, the IC50 (HIV-1 pNL4-3 V7A) was greater than 50 nM and the IC50 (HIV-1 strain 92HT599; [1]) was less than 3 nM. It also gave an IC50 (HIV-1 strain 92HT599; [2]) of less than 50 nM.

`CC(C)C1=C2[C@H]3CC[C@@H]4[C@@]5(C)CC[C@H](OC(=O)[C@H]6C[C@@H](C(=O)O)C6(C)C)C(C)(C)[C@@H]5CC[C@@]4(C)[C@]3(C)CC[C@@]2(NC(=O)C(C)(C)NC(=O)c2ccc(Cl)cn2)CC1=O` [Example 70, (1R,3S)-3-((((3aR,5aR,5bR,7aR,9S,11aR,11bR,13aS)-3a-(2-(5-chloropicolinamido)-2-methylpropanamido)-1-isopropyl-5a,5b,8,8,11a-pentamethyl-2-oxo-3,3a,4,5,5a,5b,6,7,7a,8,9,10,11,11a,11b,12,13,13a-octadecahydro-2H-cyclopenta[a]chrysen-9-yl)oxy)carbonyl)-2,2-dimethylcyclobutane-1-carboxylic acid] showed an IC50 (HIV-1 pNL4-3 WT) of less than 5 nM, an IC50 (HIV-1 pNL4-3 V7A) of less than 10 nM and an IC50 (HIV-1 strain 92HT599; [1]) of less than 3 nM. The IC50 (HIV-1 strain 92HT599; [2]) was less than 50 nM.

Molecule `Cc1cccc(NC(=O)NC(C)(C)C(=O)N[C@@]23CC[C@]4(C)[C@H](CC[C@@H]5[C@@]6(C)CC[C@H](OC(=O)[C@H]7C[C@@H](C(=O)O)C7(C)C)C(C)(C)[C@@H]6CC[C@]54C)C2=C(C(C)C)C(=O)C3)n1` [Example 72, (1R,3S)-3-((((3aR,5aR,5bR,7aR,9S,11aR,11bR,13aS)-1-isopropyl-5a,5b,8,8,11a-pentamethyl-3a-(2-methyl-2-(3-(6-methylpyridin-2-yl)ureido)propanamido)-2-oxo-3,3a,4,5,5a,5b,6,7,7a,8,9,10,11,11a,11b,12,13,13a-octadecahydro-2H-cyclopenta[a]chrysen-9-yl)oxy)carbonyl)-2,2-dimethylcyclobutane-1-carboxylic acid] has an IC50 (HIV-1 pNL4-3 WT) of less than 5 nM, an IC50 (HIV-1 pNL4-3 V7A) greater than 50 nM and an IC50 (HIV-1 strain 92HT599; [1]) of less than 3 nM. The IC50 (HIV-1 strain 92HT599; [2]) was less than 50 nM.
